Results as given in patent publication US11427869B2, “T cell balance gene expression, compositions of matters and methods of use thereof” (THE BROAD INSTITUTE, INC., priority 2015, dated 2022).

Experiments:
Rorγt = target: T1, Rorγt (Mus musculus, UniProt P51450); assay: Rorγt ChIP-qPCR in Th17 cells; assay type: cell-based; conditions: WT Th17 cells, TGF-β1+IL-6 96h; 10 μM fatty acid added at day 0
T1 construct: expressed in transfected cells; host or cells: EL4 cells stably transfected with Rorγt vector
T1 sequence (P51450 1-495 isoform P51450-2): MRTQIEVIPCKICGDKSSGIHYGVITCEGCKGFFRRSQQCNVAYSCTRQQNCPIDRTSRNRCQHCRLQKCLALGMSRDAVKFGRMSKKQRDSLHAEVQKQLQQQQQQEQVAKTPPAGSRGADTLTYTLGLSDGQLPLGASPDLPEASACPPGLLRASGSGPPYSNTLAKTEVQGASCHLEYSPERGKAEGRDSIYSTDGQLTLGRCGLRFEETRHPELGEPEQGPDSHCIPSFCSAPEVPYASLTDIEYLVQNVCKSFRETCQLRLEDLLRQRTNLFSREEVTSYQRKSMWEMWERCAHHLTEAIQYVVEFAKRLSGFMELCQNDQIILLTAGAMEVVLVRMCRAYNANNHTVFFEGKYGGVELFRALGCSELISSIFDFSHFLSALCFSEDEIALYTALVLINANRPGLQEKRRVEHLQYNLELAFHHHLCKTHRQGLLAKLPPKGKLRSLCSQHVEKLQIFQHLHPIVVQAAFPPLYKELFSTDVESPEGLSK
Protocol: (FIG. 18A, FIG. 18B) Rorγt ChIP-PCR analyses in WT and CD5L−/− Th17 cells. WT, CD5L−/− and Rorγt−/− Th17 cells were differentiated with TGF-1+IL-6 for 96h. Enrichment of Rorγt binding to genomic regions of Il17 (FIG. 18A) and Il10 (FIG. 18B) is measured using qPCR. […] Three independent experiments were performed.

Th17 cells [1] = assay: Flow cytometry and intracellular cytokine staining of T cells; assay type: cell-based, mouse
Protocol: WT, CD5L−/− and Rorγt−/− Th17 cells were differentiated with TGF-1+IL-6 for 96h. […] Three independent experiments were performed. […] (FIG. 18E) Naïve WT T cells were activated without polarizing cytokines (Th0) and infected with retrovirus expressing Rorγt in the presence of control-RV or CD5L-RV with or without FF-MAS (5 uM) as a source of Rorγt ligand. Each dot represents an independent infection. (FIG. 18F) WT or CD5L−/− naïve cells were differentiated with TGF-β1+IL-6. At 48h, cells were replated in fresh media with either control or FF-MAS (5 uM) as a source of Rorγt ligand. Cells were harvested for FACS analysis 72h later.
T cell differentiation culture. Naïve CD4+CD44−CD62L+CD25− T cells or Effector memory CD4+CD44+CD62L− were sorted using BD FACSAria sorter and activated with plate-bound anti-CD3 and anti-CD28 antibodies (both at 2 μg/ml) in the presence of cytokines at a concentration of 2.5×10^5 cells/ml. For Th17 differentiation: 2 ng/ml of rhTGFβ1, 2 ng/ml of rhTGFβ3, 25 ng/ml rmIL-6, 20 ng/ml rmIL-18 (all from Miltenyi Biotec) and 20 ng/ml rmIL-23 (R & D systems) were used at various combinations as specified in figures. For Th1 differentiation, 20 ng/ml rmIL-12 (R & D systems); for Th2 differentiation 20 ng/ml rmIL-4 (Miltenyi Biotec); for iTreg differentiation, 2.5 ng/ml of rhTGFβ1 were used (Miltenyi Biotec). For differentiation experiments, cells were harvested at 48 hours. For restimulation experiments, cells were differentiated for 48 hours and resuspended in fresh media with no additional cytokines for 48-72 hours. Cells were re-stimulated with PMA/ionomycin for four hours before analysis for cytokines by intracellular cytokine staining. For experiments with exogenous fatty acid, fatty acids were purchased and resuspended first with serum-free media containing BSA prior being added to culture.
Flow cytometry and intracellular cytokine staining. Sorted naïve T cells were stimulated with phorbol 12-myristate 13-acetate (PMA) (50 ng/ml, Sigma-aldrich), ionomycin (1 μg/ml, Sigma-aldrich) and a protein transport inhibitor containing monensin (Golgistop) (BD Biosciences) for 4 h before detection by staining with antibodies.

Th17 cells [2] = assay: qPCR of gene expression (cyp51, sc4mol, pathogenicity signature) in Th17 cells with exogenous fatty acid; assay type: cell-based, mouse
[3] = mice fed with a diet rich in PUFA (Monk et al., 2012, 2013); cited from earlier work
[4] = Th17 cells differentiated with TGF-β1+IL-6

With CCCCC/C=C\C/C=C\C/C=C\C/C=C\CCCC(=O)O [PUFA, arachidonic acid] the “Rorγt binding at Il17 and Il23r loci (ChIP-PCR)” value (Rorγt) was “decreased such binding”, the “Rorγt binding to the Il10 CNS-9 locus (ChIP-PCR)” value (Rorγt) was “increased Rorγt binding to the Il10 CNS-9 locus” and the “percentage of IL-17+CD4+ T cells” value (Th17 cells [1]; CD5L−/− Th17 cells differentiated with TGF-β1+IL-6) was “reduced percentage of IL-17+CD4+ T cells”. The “IL-17 and IL-23R expression” value (Th17 cells [1]; WT Th17 cells differentiated with TGF-β1+IL-6 and expanded using IL-23 with fatty acid) was “suppressed IL-17 and IL-23R expression”, the “expression of cyp51 and sc4mol mRNA” value (Th17 cells [2]; CD5L−/− Th17 cells (TGF-β1+IL-6), fatty acid 25 uM added at 48h, analyzed at 96h) was “abolished the increased expression of the enzymes” and the “Il22 expression (qPCR)” value (Th17 cells [2]; [4]) was “increased”. The “effector molecule expression of the pathogenicity signature (Il10, Il23r, Ccl5, Csf2, Lag3; qPCR)” value (Th17 cells [2]; [4]) was “reciprocally regulated” and the “severity of chronic colitis and Th17 cell polarization” value [3] was “reduced severity of chronic colitis and Th17 cell polarization”.
